Usually pIC50 stands for the IC50 on a negative log10 scale, so that one unit is a factor of ten.

From patent US8404692B2, “Pyrimidin-4-yl-3, 4-dihydro-2H-pyrrolo [1,2A] pyrazin-1-one compounds” (Cyclacel Limited, priority 2005, dated 2013) come the findings set out here.

pIC50: −log10 of the molar value.

For this test, the target named is T1, aurora-A (human) (Homo sapiens, UniProt O14965).
T1 construct: purchased Upstate, Dundee, UK
T1 sequence (O14965 1-403): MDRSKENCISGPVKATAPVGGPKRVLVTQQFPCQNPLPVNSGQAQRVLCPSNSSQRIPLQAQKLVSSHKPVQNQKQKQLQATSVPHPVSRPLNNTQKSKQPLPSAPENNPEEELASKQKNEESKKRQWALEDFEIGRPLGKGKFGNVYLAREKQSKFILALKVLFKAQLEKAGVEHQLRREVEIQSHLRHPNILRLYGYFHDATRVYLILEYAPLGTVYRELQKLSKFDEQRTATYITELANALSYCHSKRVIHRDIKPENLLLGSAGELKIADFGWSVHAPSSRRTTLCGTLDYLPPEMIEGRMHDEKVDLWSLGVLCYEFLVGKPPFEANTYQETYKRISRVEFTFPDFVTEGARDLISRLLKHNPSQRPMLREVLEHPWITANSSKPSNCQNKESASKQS
The test is described as follows: Aurora-A (human) kinase assay. It counts as biochemical. To be noted: read-out: Activity (Aurora A activity, IC50 grading). The protocol: This was achieved by measurement of incorporation of radioactive phosphate from ATP into Kemptide substrate (LRRASLG), upon phosphorylation by commercially obtained aurora-A (human, Upstate; Dundee, UK). Assays were performed using 96-well plates and appropriate assay buffers (20 mM Tris, 25 mM β-glycerophosphate, 5 mM EGTA, 1 mM DTT, 1 mM sodium vanadate, pH 7.5), into which were added 2-5 ng of active enzyme with 500 μM substrate (Kemptide). The reactions were initiated by addition of MATP mix (15 mM MgCl2+100 μM ATP with 15-25 kBq per well of [γ-^32P]-ATP) and mixtures incubated for 30 min at 30° C. Reactions were stopped by addition of an equal volume of 75 mM aq orthophosphoric acid, followed by filtration through p81 filterplates (Whatman Polyfiltronics, Kent, UK). After washing 4 times with 75 mM aq orthophosphoric acid, plates were dried, scintillant added and incorporated radioactivity measured in a scintillation counter (TopCount, Packard Instruments, Pangbourne, Berks, UK). Compounds for kinase assay were made up as 10 mM stocks in DMSO and diluted into 10% DMSO in assay buffer. Data was analysed using curve-fitting software (XLfit version 4.0.2, IDBS, Guildford, Surrey, UK) to determine IC50 values (concentration of test compound which inhibits kinase activity by 50%).
As for `COc1ccc(Nc2nccc(-c3c(C)c4n(c3C)CCNC4=O)n2)cc1` [Example I-4, 7-[2-(4-Methoxy-phenylamino)-pyrimidin-4-yl]-6,8-dimethyl-3,4-dihydro-2H-pyrrolo[1,2-a]pyrazin-1-one], the pIC50 is > 6.00.
In the case of `Cc1c(-c2ccnc(Nc3cccc([N+](=O)[O-])c3)n2)c(C)n2c1C(=O)NCC2` [Example I-5, 6,8-Dimethyl-7-[2-(3-nitro-phenylamino)-pyrimidin-4-yl]-3,4-dihydro-2H-pyrrolo[1,2-a]pyrazin-1-one], the negative logarithm of the IC50 (pIC50) was > 6.00.
In the case of `Cc1c(-c2ccnc(Nc3ccc(N(C)C)cc3)n2)c(C)n2c1C(=O)NCC2` [Example I-6, 7-[2-(4-Dimethylamino-phenylamino)-pyrimidin-4-yl]-6,8-dimethyl-3,4-dihydro-2H-pyrrolo[1,2-a]pyrazin-1-one], the pIC50 was > 6.00.
The figure for `CC(=O)N1CCN(c2ccc(Nc3nccc(-c4c(C)c5n(c4C)CCNC5=O)n3)cc2)CC1` [Example I-7, 7-{2-[4-(4-Acetyl-piperazin-1-yl)-phenylamino]-pyrimidin-4-yl}-6,8-dimethyl-3,4-dihydro-2H-pyrrolo[1,2-a]pyrazin-1-one] is > 6.00; for `CC(=O)N1CCN(c2ccc(Nc3nccc(-c4c(C)c5n(c4C)CCNC5=O)n3)cc2C)CC1` [Example I-8, 7-{2-[4-(4-Acetyl-piperazin-1-yl)-3-methyl-phenylamino]-pyrimidin-4-yl}-6,8-dimethyl-3,4-dihydro-2H-pyrrolo[1,2-a]pyrazin-1-one] it is > 6.00.
With `COc1cc(Nc2nccc(-c3c(C)c4n(c3C)CCNC4=O)n2)ccc1N1CCN(C(C)=O)CC1` [Example I-9, 7-{2-[4-(4-Acetyl-piperazin-1-yl)-3-methoxy-phenylamino]-pyrimidin-4-yl}-6,8-dimethyl-3,4-dihydro-2H-pyrrolo[1,2-a]pyrazin-1-one] the figure was > 6.00; with `Cc1c(-c2ccnc(Nc3ccc4cn[nH]c4c3)n2)c(C)n2c1C(=O)NCC2` [Example I-11, 7-[2-(1H-Indazol-6-ylamino)-pyrimidin-4-yl]-6,8-dimethyl-3,4-dihydro-2H-pyrrolo[1,2-a]pyrazin-1-one], > 6.00.
With `Cc1c(-c2ccnc(Nc3ccc4c(c3)OCC(=O)N4)n2)c(C)n2c1C(=O)NCC2` [Example I-12, 7-[4-(6,8-Dimethyl-1-oxo-1,2,3,4-tetrahydro-pyrrolo[1,2-a]pyrazin-7-yl)-pyrimidin-2-ylamino]-4H-benzo[1,4]oxazin-3-one] the figure was > 6.00; with `CCN(CC)c1ccc(Nc2nccc(-c3c(C)c4n(c3C)CCNC4=O)n2)cc1` [Example I-13, 7-[2-(4-Diethylamino-phenylamino)-pyrimidin-4-yl]-6,8-dimethyl-3,4-dihydro-2H-pyrrolo[1,2-a]pyrazin-1-one], > 6.00; with `Cc1c(-c2ccnc(Nc3ccc(N4CCOCC4)nc3)n2)c(C)n2c1C(=O)NCC2` [Example I-13a, 6,8-Dimethyl-7-[2-(6-morpholin-4-yl-pyridin-3-ylamino)-pyrimidin-4-yl]-3,4-dihydro-2H-pyrrolo[1,2-a]pyrazin-1-one], > 6.00.
Regarding `COc1ccc(Nc2nccc(-c3c(C)c4n(c3C)CCNC4=O)n2)cn1` [Example I-13b, 7-[2-(6-Methoxy-pyridin-3-ylamino)-pyrimidin-4-yl]-6,8-dimethyl-3,4-dihydro-2H-pyrrolo[1,2-a]pyrazin-1-one], the pIC50 was > 6.00.
The figure for `Cc1c(-c2ccnc(Nc3ccc(Br)cc3)n2)c(C)n2c1C(=O)NCC2` [Example I-14, 7-[2-(4-Bromo-phenylamino)-pyrimidin-4-yl]-6,8-dimethyl-3,4-dihydro-2H-pyrrolo[1,2-a]pyrazin-1-one] is > 6.00.
The figure for `Cc1c(-c2ccnc(Nc3cccc(S(=O)(=O)CCO)c3)n2)c(C)n2c1C(=O)NCC2` [Example I-15, 7-{2-[3-(2-Hydroxy-ethanesulfonyl)-phenylamino]-pyrimidin-4-yl}-6,8-dimethyl-3,4-dihydro-2H-pyrrolo[1,2-a]pyrazin-1-one] is > 6.00; for `Cc1c(-c2ccnc(Nc3ccc4sc(C(=O)O)cc4c3)n2)c(C)n2c1C(=O)NCC2` [Example I-16, 5-[4-(6,8-Dimethyl-1-oxo-1,2,3,4-tetrahydro-pyrrolo[1,2-a]pyrazin-7-yl)-pyrimidin-2-ylamino]-benzo[b]thiophene-2-carboxylic acid] it is > 7.00.
In the case of `Cc1c(-c2ccnc(Nc3ccc(O)cc3)n2)c(C)n2c1C(=O)NCC2` [Example I-17, 7-[2-(4-Hydroxy-phenylamino)-pyrimidin-4-yl]-6,8-dimethyl-3,4-dihydro-2H-pyrrolo[1,2-a]pyrazin-1-one], the negative logarithm of the IC50 (pIC50) was > 6.00.
With `COc1cc(Nc2nccc(-c3c(C)c4n(c3C)CCNC4=O)n2)ccc1S(=O)(=O)NC(C)C` [Example I-18, 4-[4-(6,8-Dimethyl-1-oxo-1,2,3,4-tetrahydro-pyrrolo[1,2-a]pyrazin-7-yl)-pyrimidin-2-ylamino]-N-isopropyl-2-methoxy-benzenesulfonamide] the figure was > 7.00; with `Cc1c(-c2ccnc(Nc3ccc(S(=O)(=O)NC(C)C)cc3)n2)c(C)n2c1C(=O)NCC2` [Example I-19, 4-[4-(6,8-Dimethyl-1-oxo-1,2,3,4-tetrahydro-pyrrolo[1,2-a]pyrazin-7-yl)-pyrimidin-2-ylamino]-N-isopropyl-benzenesulfonamide], > 6.00; with `Cc1c(-c2ccnc(Nc3ccc(NS(C)(=O)=O)cc3)n2)c(C)n2c1C(=O)NCC2` [Example I-20, N-{4-[4-(6,8-Dimethyl-1-oxo-1,2,3,4-tetrahydro-pyrrolo[1,2-a]pyrazin-7-yl)-pyrimidin-2-ylamino]-phenyl}-methanesulfonamide], > 6.00.
The figure for `CCN(CC)CCCNS(=O)(=O)c1ccc(Nc2nccc(-c3c(C)c4n(c3C)CCNC4=O)n2)cc1C` [Example I-21, N-(3-Diethylamino-propyl)-4-[4-(6,8-dimethyl-1-oxo-1,2,3,4-tetrahydro-pyrrolo[1,2-a]pyrazin-7-yl)-pyrimidin-2-ylamino]-2-methyl-benzenesulfonamide] is > 5.00.
Take `COc1cc(Nc2nccc(-c3c(C)c4n(c3C)CCNC4=O)n2)ccc1S(=O)(=O)N1CCCCC1` [Example I-22, 7-{2-[3-Methoxy-4-(piperidine-1-sulfonyl)-phenylamino]-pyrimidin-4-yl}-6,8-dimethyl-3,4-dihydro-2H-pyrrolo[1,2-a]pyrazin-1-one]: the pIC50 is > 6.00.
The figure for `COc1cc(Nc2nccc(-c3c(C)c4n(c3C)CCNC4=O)n2)ccc1S(=O)(=O)NCCN(C)C` [Example I-23, N-(2-Dimethylamino-ethyl)-4-[4-(6,8-dimethyl-1-oxo-1,2,3,4-tetrahydro-pyrrolo[1,2-a]pyrazin-7-yl)-pyrimidin-2-ylamino]-2-methoxy-benzenesulfonamide] is > 6.00.
With `COc1cc(Nc2nccc(-c3c(C)c4n(c3C)CCNC4=O)n2)ccc1S(=O)(=O)N1CCN(C)CC1` [Example I-24, 7-{2-[3-Methoxy-4-(4-methyl-piperazine-1-sulfonyl)-phenylamino]-pyrimidin-4-yl}-6,8-dimethyl-3,4-dihydro-2H-pyrrolo[1,2-a]pyrazin-1-one] the figure was > 6.00.
With `Cc1c(-c2ccnc(Nc3cccc(C(=O)O)c3)n2)c(C)n2c1C(=O)NCC2` [Example I-25, [4-(6,8-Dimethyl-1-oxo-1,2,3,4-tetrahydro-pyrrolo[1,2-a]pyrazin-7-yl)-pyrimidin-2-ylamino]-benzoic acid] the figure was > 6.00; with `Cc1c(-c2ccnc(Nc3ccc(C(=O)O)cc3)n2)c(C)n2c1C(=O)NCC2` [Example I-26, 4-[4-(6,8-Dimethyl-1-oxo-1,2,3,4-tetrahydro-pyrrolo[1,2-a]pyrazin-7-yl)-pyrimidin-2-ylamino]-benzoic acid], > 7.00.
Turning to `COc1cc(C(=O)O)ccc1Nc1nccc(-c2c(C)c3n(c2C)CCNC3=O)n1` [Example I-27, 4-[4-(6,8-Dimethyl-1-oxo-1,2,3,4-tetrahydro-pyrrolo[1,2-a]pyrazin-7-yl)-pyrimidin-2-ylamino]-3-methoxy-benzoic acid], the pIC50 was > 6.00.
The figure for `COc1ccc(Nc2nccc(-c3c(C)c4n(c3C)CCNC4=O)n2)cc1O` [Example I-28, 7-[2-(3-Hydroxy-4-methoxy-phenylamino)-pyrimidin-4-yl]-6,8-dimethyl-3,4-dihydro-2H-pyrrolo[1,2-a]pyrazin-1-one] is > 6.00.
With `Cc1c(-c2ccnc(Nc3ccc4c(c3)OCO4)n2)c(C)n2c1C(=O)NCC2` [Example I-29, 7-[2-(Benzo-[1,3]dioxol-5-ylamino)-pyrimidin-4-yl]-6,8-dimethyl-3,4-dihydro-2H-pyrrolo[1,2-a]pyrazin-1-one] the figure was > 6.00.
